# What was measured:
# Assay in all cases: relative viability (nuclei count vs DMSO), 5 days (fraction); higher = more cells survive
# [1] = system: A-427
# How it was run: (§1)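 One day after seeding in 1536-well plates, lung cancer cell lines were dosed by pin tool. Dosing was either single-drug or a fixed anchor-drug dose plus five library-drug doses (not always all listed) in √10 steps. After 5 days, nuclei were stained in one fix-and-stain step and counted on 4× images, and relative viability is the nuclei count of treated wells over that of vehicle wells, given as the median of duplicate plates.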
# [2] = system: ABC-1
# How it was run: as §1
# [3] = system: COR-L23
# How it was run: as §1
# [4] = system: ChaGo-K-1
# How it was run: as §1
# [5] = system: EMC-BAC-2
# How it was run: as §1
# [6] = system: HARA
# How it was run: as §1
# [7] = system: HCC-15
# How it was run: as §1
# [8] = system: HCC-366
# How it was run: as §1
# [9] = system: HCC-78
# How it was run: as §1
# [10] = system: LC-2-ad
# How it was run: as §1
# [11] = system: LK-2
# How it was run: as §1
# [12] = system: NCI-H1650
# How it was run: as §1
# [13] = system: NCI-H1734
# How it was run: as §1
# [14] = system: NCI-H1793
# How it was run: as §1
# [15] = system: NCI-H1944
# How it was run: as §1
# [16] = system: NCI-H1993
# How it was run: as §1
# [17] = system: NCI-H2009
# How it was run: as §1
# [18] = system: NCI-H2023
# How it was run: as §1
# [19] = system: NCI-H2228
# How it was run: as §1
# [20] = system: NCI-H23
# How it was run: as §1
# [21] = system: NCI-H2405
# How it was run: as §1
# [22] = system: NCI-H838
# How it was run: as §1
# [23] = system: SK-LU-1
# How it was run: as §1
# [24] = system: UMC-11
# How it was run: as §1
structure (smiles),measurement,setting,value
COc1cc(N2CCC(C(N)=O)CC2)ccc1Nc1nc(N)c(Cl)c(Nc2ccccc2S(=O)(=O)C(C)C)n1 [HG-5-88-01] + Cc1cc(Nc2cc(N3CCN(C)CC3)nc(Sc3ccc(NC(=O)C4CC4)cc3)n2)n[nH]1 [Tozasertib] (partner 0.1 µM),relative viability,[1]; first compound 0.04 µM,0.193
same,relative viability,[1]; first compound 0.1265 µM,0.208
same,relative viability,[1]; first compound 0.4 µM,0.158
same,relative viability,[1]; first compound 1.265 µM,0.184
same,relative viability,[1]; first compound 4 µM,0.18
same,relative viability,[2]; first compound 0.04 µM,0.15
same,relative viability,[2]; first compound 0.1265 µM,0.204
same,relative viability,[2]; first compound 0.4 µM,0.172
same,relative viability,[2]; first compound 1.265 µM,0.154
same,relative viability,[2]; first compound 4 µM,0.179
same,relative viability,[3]; first compound 0.04 µM,0.202
same,relative viability,[3]; first compound 0.1265 µM,0.196
same,relative viability,[3]; first compound 0.4 µM,0.168
same,relative viability,[3]; first compound 1.265 µM,0.165
same,relative viability,[3]; first compound 4 µM,0.109
same,relative viability,[4]; first compound 0.04 µM,0.213
same,relative viability,[4]; first compound 0.1265 µM,0.25
same,relative viability,[4]; first compound 0.4 µM,0.155
same,relative viability,[4]; first compound 1.265 µM,0.229
same,relative viability,[4]; first compound 4 µM,0.211
same,relative viability,[5]; first compound 0.04 µM,0.296
same,relative viability,[5]; first compound 0.1265 µM,0.288
same,relative viability,[5]; first compound 0.4 µM,0.261
same,relative viability,[5]; first compound 1.265 µM,0.264
same,relative viability,[5]; first compound 4 µM,0.24
same,relative viability,[6]; first compound 0.04 µM,0.108
same,relative viability,[6]; first compound 0.1265 µM,0.132
same,relative viability,[6]; first compound 0.4 µM,0.0858
same,relative viability,[6]; first compound 1.265 µM,0.099
same,relative viability,[6]; first compound 4 µM,0.0727
same,relative viability,[7]; first compound 0.04 µM,0.383
same,relative viability,[7]; first compound 0.1265 µM,0.368
same,relative viability,[7]; first compound 0.4 µM,0.373
same,relative viability,[7]; first compound 1.265 µM,0.107
same,relative viability,[7]; first compound 4 µM,0.159
same,relative viability,[8]; first compound 0.04 µM,0.169
same,relative viability,[8]; first compound 0.1265 µM,0.0937
same,relative viability,[8]; first compound 0.4 µM,0.0774
same,relative viability,[8]; first compound 1.265 µM,0.0436
same,relative viability,[8]; first compound 4 µM,0.0402
same,relative viability,[9]; first compound 0.04 µM,0.428
same,relative viability,[9]; first compound 0.1265 µM,0.315
same,relative viability,[9]; first compound 0.4 µM,0.424
same,relative viability,[9]; first compound 1.265 µM,0.231
same,relative viability,[9]; first compound 4 µM,0.279
same,relative viability,[10]; first compound 0.04 µM,0.505
same,relative viability,[10]; first compound 0.1265 µM,0.517
same,relative viability,[10]; first compound 0.4 µM,0.579
same,relative viability,[10]; first compound 1.265 µM,0.299
same,relative viability,[10]; first compound 4 µM,0.255
same,relative viability,[11]; first compound 0.04 µM,0.171
same,relative viability,[11]; first compound 0.1265 µM,0.18
same,relative viability,[11]; first compound 0.4 µM,0.14
same,relative viability,[11]; first compound 1.265 µM,0.18
same,relative viability,[11]; first compound 4 µM,0.16
same,relative viability,[12]; first compound 0.04 µM,0.428
same,relative viability,[12]; first compound 0.1265 µM,0.396
same,relative viability,[12]; first compound 0.4 µM,0.346
same,relative viability,[12]; first compound 1.265 µM,0.174
same,relative viability,[12]; first compound 4 µM,0.227
same,relative viability,[13]; first compound 0.04 µM,0.267
same,relative viability,[13]; first compound 0.1265 µM,0.235
same,relative viability,[13]; first compound 0.4 µM,0.225
same,relative viability,[13]; first compound 1.265 µM,0.243
same,relative viability,[13]; first compound 4 µM,0.27
same,relative viability,[14]; first compound 0.1265 µM,0.313
same,relative viability,[14]; first compound 0.4 µM,0.293
same,relative viability,[14]; first compound 4 µM,0.216
same,relative viability,[15]; first compound 0.04 µM,0.268
same,relative viability,[15]; first compound 0.1265 µM,0.274
same,relative viability,[15]; first compound 0.4 µM,0.261
same,relative viability,[15]; first compound 1.265 µM,0.239
same,relative viability,[15]; first compound 4 µM,0.235
same,relative viability,[16]; first compound 0.04 µM,0.607
same,relative viability,[16]; first compound 0.1265 µM,0.635
same,relative viability,[16]; first compound 0.4 µM,0.595
same,relative viability,[16]; first compound 1.265 µM,0.556
same,relative viability,[16]; first compound 4 µM,0.535
same,relative viability,[17]; first compound 0.04 µM,0.734
same,relative viability,[17]; first compound 0.1265 µM,0.753
same,relative viability,[17]; first compound 0.4 µM,0.611
same,relative viability,[17]; first compound 1.265 µM,0.578
same,relative viability,[17]; first compound 4 µM,0.451
same,relative viability,[18]; first compound 0.04 µM,0.35
same,relative viability,[18]; first compound 0.1265 µM,0.362
same,relative viability,[18]; first compound 0.4 µM,0.262
same,relative viability,[18]; first compound 1.265 µM,0.108
same,relative viability,[18]; first compound 4 µM,0.107
same,relative viability,[19]; first compound 0.04 µM,0.259
same,relative viability,[19]; first compound 0.1265 µM,0.13
same,relative viability,[19]; first compound 0.4 µM,0.159
same,relative viability,[19]; first compound 1.265 µM,0.111
same,relative viability,[19]; first compound 4 µM,0.133
same,relative viability,[20]; first compound 0.04 µM,0.337
same,relative viability,[20]; first compound 0.1265 µM,0.388
same,relative viability,[20]; first compound 0.4 µM,0.32
same,relative viability,[20]; first compound 1.265 µM,0.284
same,relative viability,[20]; first compound 4 µM,0.251
same,relative viability,[21]; first compound 0.04 µM,0.765
same,relative viability,[21]; first compound 0.1265 µM,0.704
same,relative viability,[21]; first compound 0.4 µM,0.659
same,relative viability,[21]; first compound 1.265 µM,0.395
same,relative viability,[21]; first compound 4 µM,0.416
same,relative viability,[22]; first compound 0.04 µM,0.234
same,relative viability,[22]; first compound 0.1265 µM,0.256
same,relative viability,[22]; first compound 0.4 µM,0.185
same,relative viability,[22]; first compound 1.265 µM,0.209
same,relative viability,[22]; first compound 4 µM,0.21
same,relative viability,[23]; first compound 0.04 µM,0.337
same,relative viability,[23]; first compound 0.1265 µM,0.311
same,relative viability,[23]; first compound 0.4 µM,0.298
same,relative viability,[23]; first compound 1.265 µM,0.228
same,relative viability,[23]; first compound 4 µM,0.189
same,relative viability,[24]; first compound 0.04 µM,0.213
same,relative viability,[24]; first compound 0.1265 µM,0.205
same,relative viability,[24]; first compound 1.265 µM,0.192
same,relative viability,[24]; first compound 4 µM,0.191
